Measurements: patent US12268660B2, “Oral pharmaceutical formulations of bitter compounds for pulmonary hypertension” (Aardvark Therapeutics Inc., priority 2018, dated 2025)
Structures can show the parent of a compound that is named as a salt. Where two headings read alike, the source gives them in different places.

Legend:
[1] = test system: human primary smooth muscle cells (PVSMC); details: endothelin-1 100 nM; for synergy in combination with SIN: bitter agent 1 mM with low SIN doses (10 μM)
Description: An in vitro model using human primary smooth muscle cells (PVSMC) were stimulated to contract with 100 nM endothelin-1, then treated with various test compounds alone and in combination with the PDE-5 inhibitor sildenafil, approved to treat PAH. The concentration used were 3-CQL at 1 mM, DB at 1 mM, DS at 1 mM and SIN (sildenafil) at 10 μM. The controls were 0.5% and 1% DMSO in media because DB is water-soluble but DS, 3-CQL and SIN are DMSO soluble.

primary pulmonary SMCs = assay: Second experiment: primary pulmonary SMCs induced to contract with 10 μM phenylephernine (PE); assay type: cell-based; details: PE 10 μM; for synergy in combination with SIN: bitter agent with low SIN doses
Description: In a second experiment, primary pulmonary SMCs were induced to contract using 10 μM phenylephernine (PE). PE was added after a baseline reading. The test compounds were added after a second timepoint and 800-1300 cells were assayed per trace, starting with FIG. 6.

[2] = Solubility of test compounds (choice of control media); details: water or DMSO
[3] = cited from earlier work
TAS2R subtypes = details: cited from earlier work
[4] = SIN by itself at low doses (10 μM)

## O=C(/C=C/c1ccc(O)c(O)c1)O[C@@H]1C[C@]2(O)C[C@@H](OC2=O)[C@@H]1O [3-CQL, 3-caffeoylquinic-1,5-lactone]
[1]
  synergy in combination with SIN: synergy
Primary pulmonary SMCs
  synergy in combination with SIN: possibly
[2]
  solubility: DMSO soluble

## CN1CCc2cccc3c2[C@H]1Cc1ccc(O)c(O)c1-3 [Apomorphine, 5,6,6a,7-Tetrahydro-6-methyl-4H-dibenzo[de,g]quinoline-10,11-diol hydrochloride]
[3]
  oral availability: ~4%

## CC[N+](CC)(CC(=O)Nc1c(C)cccc1C)Cc1ccccc1.O=C([O-])c1ccccc1 [DB, Denatonium Benzoate]
TAS2R subtypes
  TAS2R subtypes activated (number): 8
[1]; DB alone (1 mM)
  potency in reversal from peak contraction of the PVSMCs: not potent
[1]
  synergy in combination with SIN: synergy
Primary pulmonary SMCs
  synergy in combination with SIN: synergy

## CC[N+](CC)(CC(=O)Nc1c(C)cccc1C)Cc1ccccc1 [DS, Denatonium Saccharide]
[1]
  synergy in combination with SIN: synergy
Primary pulmonary SMCs
  synergy in combination with SIN: synergy

## CCCc1nn(C)c2c(=O)[nH]c(-c3cc(S(=O)(=O)N4CCN(C)CC4)ccc3OCC)nc12 [SIN, sildenafil, reference compound]
[1]; SIN at 100 μM
  efficacy in reversal from peak contraction of the PVSMCs: extremely effective
[1]; [4]
  efficacy in reversal from peak contraction of the PVSMCs: not effective
Primary pulmonary SMCs; SIN at 100 μM
  in vitro efficacy against PE-induced contraction: extremely effective
Primary pulmonary SMCs; [4]
  in vitro efficacy against PE-induced contraction: not effective
[2]
  solubility: DMSO soluble

## quinine [reference compound]
TAS2R subtypes
  TAS2R subtypes activated (number): 9
